In US20070202512A1, “Human single nucleotide polymorphisms associated with dose-dependent weight gain and methods of use thereof” (Bristol-Myers Squibb Company, priority 2005, published 2007):

Assays:
[1] = Phase II clinical trial CV168-006: weight gain by PPAR-alpha SNP1 (Leu162Val) genotype; assay type: in vivo, human
Protocol: Genomic DNA samples from patients enrolled in a Bristol-Myers Squibb Company Phase II clinical trial CV168-006 trial were genotyped for 1 SNP identified in the human PPAR-alpha gene (see Example 1) and evaluated for association with weight gain.
(§1) 498 subjects enrolled in the CV168-006 trial were analyzed in this study. All analyses were based on data collected up to 24 weeks, which was the duration of the short-term phase of the trials. DNA was extracted from frozen blood by a third-party (Genaissance Inc, North Carolina) using a salting-out method (Gentra Systems). All subjects gave written informed consent.
(§2) Genotyping was performed using the 5′ nuclease assay, essentially as described (Ranade K et al., Genome Research 11: 1262-1268 (2001); which is hereby incorporated by reference herein in its entirety), with the following modifications: six nanograms of genomic DNA were used in a 8 ul reaction. All PCR reactions were performed in an ABI 9700 machine and fluorescence was measured using an ABI 7900 machine.
The association between weight gain and the single nucleotide polymorphisms of the present invention were investigated by applying statistical analysis to the results of the genotyping assays described elsewhere herein. […]
Statistical Analyses. The influence of the SNP on weight gain was assessed using ANOVA. […]

[2] = Phase II clinical trial CV168-006: weight gain by GRL SNP1 (Asn363Ser) genotype; assay type: in vivo, human; conditions: patients treated with 20 mg in CV168-006; data up to 24 weeks
Protocol: (§3) Genomic DNA samples from patients enrolled in two Bristol-Myers Squibb Company Phase II clinical trial CV168-006 were genotyped for 1 SNP identified in the human GRL gene (see Example 7) and evaluated for association with weight gain.
as §1
(§4) The influence on SNP1 on weight gain and the probability of achieving lower levels of glycosylated hemoglobin (HbA1C) was assessed using ANOVA (GRL; P=0.005; P=0.007; respectively).
as §2, with “machine. […]” for “machine.”
(§5) Statistical Analyses. The influence of the SNP on weight gain and decreased glycosylated hemoglobin (HbA1C) was assessed using ANOVA. […]

[3] = test system: glycosylated hemoglobin (HbA1C); experiment: Phase II clinical trial CV168-006: glycosylated hemoglobin (HbA1C) by GRL SNP1 (Asn363Ser) genotype; assay type: in vivo, human; conditions: patients treated with 20 mg in CV168-006; data up to 24 weeks
Protocol: as §3, §1, §4
as §2, with “machine. […]” for “machine.”
as §5

[4] = thought to be due to increased fluid retention and fat accumulation; cited from earlier work

For COc1ccc(OC(=O)N(CC(=O)O)Cc2ccc(OCCc3nc(-c4ccccc4)oc3C)cc2)cc1 [Compound A, N-[(4-methoxyphenoxy)carbonyl]-N-[[4-[2-(5-methyl-2-phenyl-4-oxazolyl)ethoxy]phenyl]methyl]glycine], the “weight gain, carriers of the Valine allele vs homozygous Leucine allele (PPARα residue 162)” value ([1]; patients of a Phase II trial, Val carriers compared with Leu/Leu) was “gained significantly less weight”, the “influence of PPAR-alpha SNP1 on weight gain, P (ANOVA)” value ([1]; patients treated with 20 mg in CV168-006, data up to 24 weeks) was 0.039 and the “influence of GRL SNP1 on weight gain, P (ANOVA)” value [2] was 0.005. For the same molecule, the “influence of GRL SNP1 on lower levels of glycosylated hemoglobin (HbA1C), P (ANOVA)” value [3] was 0.007 and the “weight gain (side effect)” value [4] was “result in weight gain”.

For CCc1ccc(CCOc2ccc(CC3SC(=O)NC3=O)cc2)nc1 (stereo not shown) [pioglitazone], the “weight gain (side effect)” value [4] is given as “can cause weight gain in some individuals”.

In the case of CN(CCOc1ccc(CC2SC(=O)NC2=O)cc1)c1ccccn1 (stereo not shown) [rosiglitazone], the “weight gain (side effect)” value [4] is given as “can cause weight gain in some individuals”.
